# Assay results: patent publication US7198910B1, “Nucleic acid encoding melanin-concentrating hormone receptor” (Merck & Co., Inc., priority 1999, dated 2007)
# Columns and labels:
# [1] = test system: endogenous Xenopus receptor; test: Melanophore pigment aggregation control, endogenous melatonin response; format: cell-based, Xenopus laevis; settings: stimulating the endogenous Xenopus receptor
# Description: (§1) For Gi-coupled responses, cell monolayers plated in 96-well microtiter plates were incubated in the presence of 100 μl/well of 70% L-15 media containing 2% fibroblast-conditioned growth medium, 2 mM glutamine, 100 μg/ml streptomycin, 100 units/ml penicillin and 15 mM HEPES, pH 7.3, for 15 minutes in readings at 600 nm were determined, followed by the addition of ligands. After a 1.5 hour incubation in the dark at room temperature final absorbances were determined. Absorbance readings were converted to transmission values to quantitate pigment dispersion using the following formula: 1−Tf/Ti, where Ti=the initial transmission at 600 nm and Tf=the final transmission at 600 nm.
# (§2) The Xenopus melanophore system (Daniolos, et al., 1992. Pigment Cell Res. 3, 38–43) is based on the dispersion and aggregation of intracellular pigment granules in response to changes in intracellular second messenger molecules. Agonist activation of a recombinant Gs- or Gq-coupled receptor expressed heterologously in melanophores leads to pigment dispersion. […] Changes in the melanophore pigmentation show a dose-dependent correlation with the level of specific receptor activation, and can be quantified by the change in absorbance at 600 nm between the nonactivated and agonist-activated cells (Daniolos, et al., 1992. Pigment Cell Res. 3, 38–43). […]
# [2] = test system: endogenous melanophore thrombin receptor; test: Pigment aggregation in mock (non-receptor) transfected melanophores; format: cell-based, Xenopus laevis; settings: represents activation of endogenous thrombin receptor
# Description: as §1, §2
Compound,Aggregation response (control) [1],Pigment aggregation response in mock (non-receptor) transfected melanophores [2]
COc1ccc2[nH]cc(CCNC(C)=O)c2c1 [melatonin],positive aggregation response,–
thrombin,–,detected
